*1 amine or outer side, *2 acyl side, *3 side chain or, on linkers, in order; H or OH if unused. Where a SMILES comes first, the peptide text is derived from it. [ ]: non-standard residue; d: D form. Bip(4'-COOH) = N[C@@H](Cc1ccc(-c2ccc(C(=O)O)cc2)cc1)C(=O)O; 1Nal(3S-Me) = C[C@@H](c1cccc2ccccc12)[C@H](N)C(=O)O; hPhe(4-CF3) = N[C@@H](CCc1ccc(C(F)(F)F)cc1)C(=O)O; X8 = O=C([C@H](CCc1cccc(C(F)(F)F)c1)N[*:1])[*:2]; X13 = O=C([C@H](CCc1ccccc1C(F)(F)F)N[*:1])[*:2]; Phe(4-COOH) = N[C@@H](Cc1ccc(C(=O)O)cc1)C(=O)O; h3Pal(5-CN) = N#Cc1cncc(CC[C@H](N)C(=O)O)c1; Pro(4R-NH2) = N[C@H]1CN[C@H](C(=O)O)C1; 1Nal = N[C@@H](Cc1cccc2ccccc12)C(=O)O; Ala(4-THP) = N[C@@H](CC1CCOCC1)C(=O)O; AEF = NCCOc1ccc(C[C@H](N)C(=O)O)cc1; hTyr = N[C@@H](CCc1ccc(O)cc1)C(=O)O; 4Pal = N[C@@H](Cc1ccncc1)C(=O)O; dDab = NCC[C@@H](N)C(=O)O; Orn = NCCC[C@H](N)C(=O)O; dNMeA = CN[C@H](C)C(=O)O; Dab = NCC[C@H](N)C(=O)O; Aib = CC(C)(N)C(=O)O

14 molecules from patent US20230406885A1, “CYCLIC PEPTIDES FOR TRAPPING INTERLEUKIN-1 BETA” (MERCK SHARP & DOHME LLC, priority 2022, published 2023) can be followed below.

The assay addresses T1, Recombinant human IL-1β (Homo sapiens, UniProt P01584).
T1 construct: purchased BioLegend 579404
As to the kind of experiment: IL-6 assay in MRC5 cells: inhibition of IL-1β induced IL-6 secretion (AlphaLISA). The assay is classed as cell-based. The note with it: inhibition of IL-1β induced IL-6 secretion in MRC5 cells; IL-1β pre-incubated 1 hour with compound; read-out: MRC5 IC50. An outline of the steps: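 IL-1β at 2×EC80 in seeding medium (EMEM, 0.025% BSA) preincubated 1 h at ambient temperature with compound, then 3000 MRC5 cells/well added and incubated overnight at 37 °C, 5% CO2. IL-6 in conditioned medium quantified by AlphaLISA; IC50 from 4-parameter logistic fit.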

T1 sequence (P01584 117-269): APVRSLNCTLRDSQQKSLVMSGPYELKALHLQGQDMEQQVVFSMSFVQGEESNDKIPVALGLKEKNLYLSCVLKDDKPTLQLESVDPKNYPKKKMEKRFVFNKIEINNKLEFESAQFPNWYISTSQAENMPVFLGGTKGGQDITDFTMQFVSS

As a reminder, the IC50 is the point on the concentration scale where inhibition reaches its midpoint. With `CC(=O)NCCOc1ccc(C[C@@H]2NC(=O)[C@H](CCc3ccc(O)cc3)NC(=O)C(C)(C)NC(=O)[C@H](CCCN)NC(=O)[C@H](Cc3cccc4ccccc34)NC(=O)[C@H](Cc3ccc(-c4ccc(C(=O)O)cc4)cc3)NC(=O)CNC(=O)[C@@H](C)N(C)C(=O)[C@H](CC(=O)O)NC(=O)[C@H]([C@@H](C)c3cccc4ccccc34)NC(=O)[C@@H]3C[C@@H](N)CN3C(=O)CNC(=O)[C@H](Cc3ccc(C(=O)O)cc3)NC(=O)[C@H](Cc3c[nH]c4ccccc34)NC2=O)cc1` [Example 99] (cyclo([AEF](Ac)W[Phe(4-COOH)]G[Pro(4R-NH2)][1Nal(3S-Me)]D[dNMeA]G[Bip(4'-COOH)][1Nal][Orn][Aib][hTyr])), the IC50 was found to be 0.256 nM.
`CC(=O)NCCOc1ccc(C[C@@H]2NC(=O)[C@H](CCc3ccc(C(F)(F)F)cc3)NC(=O)[C@@H](C)NC(=O)[C@H](CCN)NC(=O)[C@H](Cc3ccncc3)NC(=O)[C@H](Cc3ccc(-c4ccc(C(=O)O)cc4)cc3)NC(=O)CNC(=O)[C@@H](C)N(C)C(=O)[C@H](CC(=O)O)NC(=O)[C@H]([C@@H](C)c3cccc4ccccc34)NC(=O)[C@@H]3C[C@@H](N)CN3C(=O)CNC(=O)[C@H](Cc3ccc(C(=O)O)cc3)NC(=O)[C@H](Cc3c[nH]c4ccccc34)NC2=O)cc1` [Example 100] (cyclo([AEF](Ac)W[Phe(4-COOH)]G[Pro(4R-NH2)][1Nal(3S-Me)]D[dNMeA]G[Bip(4'-COOH)][4Pal][Dab][dA][hPhe(4-CF3)])): the IC50 turned out to be 0.274 nM.
The same measure for `CC(=O)NCCOc1ccc(C[C@@H]2NC(=O)[C@H](CCc3ccc(O)cc3)NC(=O)[C@@H](C)NC(=O)[C@H](CCN)NC(=O)[C@H](Cc3ccncc3)NC(=O)[C@H](Cc3ccc(-c4ccc(C(=O)O)cc4)cc3)NC(=O)CNC(=O)[C@@H](C)N(C)C(=O)[C@H](CC(=O)O)NC(=O)[C@H]([C@@H](C)c3cccc4ccccc34)NC(=O)[C@@H]3C[C@@H](N)CN3C(=O)CNC(=O)[C@H](Cc3ccc(C(=O)O)cc3)NC(=O)[C@H](Cc3c[nH]c4ccccc34)NC2=O)cc1` [Example 101] (cyclo([AEF](Ac)W[Phe(4-COOH)]G[Pro(4R-NH2)][1Nal(3S-Me)]D[dNMeA]G[Bip(4'-COOH)][4Pal][Dab][dA][hTyr])): 0.247 nM; for `CC(=O)NCCOc1ccc(C[C@@H]2NC(=O)[C@H](CCc3cncc(C#N)c3)NC(=O)[C@@H](CCN)NC(=O)CNC(=O)[C@H](Cc3ccncc3)NC(=O)[C@H](Cc3ccc(-c4ccc(C(=O)O)cc4)cc3)NC(=O)CNC(=O)[C@@H](C)N(C)C(=O)[C@H](CC(=O)O)NC(=O)[C@H]([C@@H](C)c3cccc4ccccc34)NC(=O)[C@@H]3C[C@@H](N)CN3C(=O)CNC(=O)[C@H](Cc3ccc(C(=O)O)cc3)NC(=O)[C@H](Cc3c[nH]c4ccccc34)NC2=O)cc1` [Example 102] (cyclo([AEF](Ac)W[Phe(4-COOH)]G[Pro(4R-NH2)][1Nal(3S-Me)]D[dNMeA]G[Bip(4'-COOH)][4Pal]G[dDab][h3Pal(5-CN)])): 0.0421 nM.
As to `CC(=O)NCCOc1ccc(C[C@@H]2NC(=O)[C@H](CCc3ccccc3C(F)(F)F)NC(=O)[C@@H](C)NC(=O)[C@H](CO)NC(=O)[C@H](Cc3ccncc3)NC(=O)[C@H](Cc3ccc(-c4ccc(C(=O)O)cc4)cc3)NC(=O)CNC(=O)[C@@H](C)N(C)C(=O)[C@H](CC(=O)O)NC(=O)[C@H]([C@@H](C)c3cccc4ccccc34)NC(=O)[C@@H]3C[C@@H](N)CN3C(=O)CNC(=O)[C@H](Cc3ccc(C(=O)O)cc3)NC(=O)[C@H](Cc3c[nH]c4ccccc34)NC2=O)cc1` [Example 103] (cyclo([AEF](Ac)W[Phe(4-COOH)]G[Pro(4R-NH2)][1Nal(3S-Me)]D[dNMeA]G[Bip(4'-COOH)][4Pal]S[dA][X13])), the IC50 was 0.066 nM.
The same measure for `CC(=O)NCCOc1ccc(C[C@@H]2NC(=O)[C@H](CCc3cccc(C(F)(F)F)c3)NC(=O)[C@@H](C)NC(=O)[C@H](CO)NC(=O)[C@H](Cc3ccncc3)NC(=O)[C@H](Cc3ccc(-c4ccc(C(=O)O)cc4)cc3)NC(=O)CNC(=O)[C@@H](C)N(C)C(=O)[C@H](CC(=O)O)NC(=O)[C@H]([C@@H](C)c3cccc4ccccc34)NC(=O)[C@@H]3C[C@@H](N)CN3C(=O)CNC(=O)[C@H](Cc3ccc(C(=O)O)cc3)NC(=O)[C@H](Cc3c[nH]c4ccccc34)NC2=O)cc1` [Example 104] (cyclo([AEF](Ac)W[Phe(4-COOH)]G[Pro(4R-NH2)][1Nal(3S-Me)]D[dNMeA]G[Bip(4'-COOH)][4Pal]S[dA][X8])): 0.041 nM; for `CC(=O)NCCOc1ccc(C[C@@H]2NC(=O)[C@H](CCc3ccc(C(F)(F)F)cc3)NC(=O)[C@@H](C)NC(=O)[C@H](CO)NC(=O)[C@H](Cc3ccncc3)NC(=O)[C@H](Cc3ccc(-c4ccc(C(=O)O)cc4)cc3)NC(=O)CNC(=O)[C@@H](C)N(C)C(=O)[C@H](CC(=O)O)NC(=O)[C@H]([C@@H](C)c3cccc4ccccc34)NC(=O)[C@@H]3C[C@@H](N)CN3C(=O)CNC(=O)[C@H](Cc3ccc(C(=O)O)cc3)NC(=O)[C@H](Cc3c[nH]c4ccccc34)NC2=O)cc1` [Example 105] (cyclo([AEF](Ac)W[Phe(4-COOH)]G[Pro(4R-NH2)][1Nal(3S-Me)]D[dNMeA]G[Bip(4'-COOH)][4Pal]S[dA][hPhe(4-CF3)])): 0.091 nM; for `CC(=O)NCCOc1ccc(C[C@@H]2NC(=O)[C@H](CCc3cncc(C#N)c3)NC(=O)[C@@H](CCN)NC(=O)CNC(=O)[C@H](CC3CCOCC3)NC(=O)[C@H](Cc3ccc(-c4ccc(C(=O)O)cc4)cc3)NC(=O)CNC(=O)[C@@H](C)N(C)C(=O)[C@H](CC(=O)O)NC(=O)[C@H]([C@@H](C)c3cccc4ccccc34)NC(=O)[C@@H]3C[C@@H](N)CN3C(=O)CNC(=O)[C@H](Cc3ccc(C(=O)O)cc3)NC(=O)[C@H](Cc3c[nH]c4ccccc34)NC2=O)cc1` [Example 106] (cyclo([AEF](Ac)W[Phe(4-COOH)]G[Pro(4R-NH2)][1Nal(3S-Me)]D[dNMeA]G[Bip(4'-COOH)][Ala(4-THP)]G[dDab][h3Pal(5-CN)])): 0.0263 nM.
The same measure for `CC(=O)NCCOc1ccc(C[C@@H]2NC(=O)[C@H](CCc3ccc(O)cc3)NC(=O)C(C)(C)NC(=O)CNC(=O)[C@H](CCCCN)NC(=O)[C@H](Cc3ccc(-c4ccc(C(=O)O)cc4)cc3)NC(=O)CNC(=O)[C@@H](C)N(C)C(=O)[C@H](CC(=O)O)NC(=O)[C@H]([C@@H](C)c3cccc4ccccc34)NC(=O)[C@@H]3C[C@@H](N)CN3C(=O)CNC(=O)[C@H](Cc3ccc(C(=O)O)cc3)NC(=O)[C@H](Cc3c[nH]c4ccccc34)NC2=O)cc1` [Example 107] (cyclo([AEF](Ac)W[Phe(4-COOH)]G[Pro(4R-NH2)][1Nal(3S-Me)]D[dNMeA]G[Bip(4'-COOH)]KG[Aib][hTyr])): 0.0582 nM; for `CC(=O)NCCOc1ccc(C[C@@H]2NC(=O)[C@H](CCc3ccc(O)cc3)NC(=O)[C@@H](C)NC(=O)CNC(=O)[C@H](CCCCN)NC(=O)[C@H](Cc3ccc(-c4ccc(C(=O)O)cc4)cc3)NC(=O)CNC(=O)[C@@H](C)N(C)C(=O)[C@H](CC(=O)O)NC(=O)[C@H]([C@@H](C)c3cccc4ccccc34)NC(=O)[C@@H]3C[C@@H](N)CN3C(=O)CNC(=O)[C@H](Cc3ccc(C(=O)O)cc3)NC(=O)[C@H](Cc3c[nH]c4ccccc34)NC2=O)cc1` [Example 108] (cyclo([AEF](Ac)W[Phe(4-COOH)]G[Pro(4R-NH2)][1Nal(3S-Me)]D[dNMeA]G[Bip(4'-COOH)]KG[dA][hTyr])): 0.102 nM; for `CC(=O)NCCOc1ccc(C[C@@H]2NC(=O)[C@H](CCc3ccc(O)cc3)NC(=O)[C@@H](C)N(C)C(=O)CNC(=O)[C@H](CCCCN)NC(=O)[C@H](Cc3ccc(-c4ccc(C(=O)O)cc4)cc3)NC(=O)CNC(=O)[C@@H](C)N(C)C(=O)[C@H](CC(=O)O)NC(=O)[C@H]([C@@H](C)c3cccc4ccccc34)NC(=O)[C@@H]3C[C@@H](N)CN3C(=O)CNC(=O)[C@H](Cc3ccc(C(=O)O)cc3)NC(=O)[C@H](Cc3c[nH]c4ccccc34)NC2=O)cc1` [Example 109] (cyclo([AEF](Ac)W[Phe(4-COOH)]G[Pro(4R-NH2)][1Nal(3S-Me)]D[dNMeA]G[Bip(4'-COOH)]KG[dNMeA][hTyr])): 0.0775 nM.
For `CC(=O)NCCOc1ccc(C[C@@H]2NC(=O)[C@H](CCc3ccc(O)cc3)NC(=O)[C@@H](C)NC(=O)[C@H](CC(C)C)NC(=O)[C@H](CCCCN)NC(=O)[C@H](Cc3ccc(-c4ccc(C(=O)O)cc4)cc3)NC(=O)CNC(=O)[C@@H](C)N(C)C(=O)[C@H](CC(=O)O)NC(=O)[C@H]([C@@H](C)c3cccc4ccccc34)NC(=O)[C@@H]3C[C@@H](N)CN3C(=O)CNC(=O)[C@H](Cc3ccc(C(=O)O)cc3)NC(=O)[C@H](Cc3c[nH]c4ccccc34)NC2=O)cc1` [Example 110] (cyclo([AEF](Ac)W[Phe(4-COOH)]G[Pro(4R-NH2)][1Nal(3S-Me)]D[dNMeA]G[Bip(4'-COOH)]KL[dA][hTyr])) the value was 0.195 nM; for `CC(=O)NCCOc1ccc(C[C@@H]2NC(=O)[C@H](CCc3ccc(C(F)(F)F)cc3)NC(=O)[C@@H](C)NC(=O)[C@H](CO)NC(=O)[C@H](CCCCN)NC(=O)[C@H](Cc3ccc(-c4ccc(C(=O)O)cc4)cc3)NC(=O)CNC(=O)[C@@H](C)N(C)C(=O)[C@H](CC(=O)O)NC(=O)[C@H]([C@@H](C)c3cccc4ccccc34)NC(=O)[C@@H]3C[C@@H](N)CN3C(=O)CNC(=O)[C@H](Cc3ccc(C(=O)O)cc3)NC(=O)[C@H](Cc3c[nH]c4ccccc34)NC2=O)cc1` [Example 111] (cyclo([AEF](Ac)W[Phe(4-COOH)]G[Pro(4R-NH2)][1Nal(3S-Me)]D[dNMeA]G[Bip(4'-COOH)]KS[dA][hPhe(4-CF3)])), 0.133 nM.
For `CC(=O)NCCOc1ccc(C[C@@H]2NC(=O)[C@H](CCc3ccc(O)cc3)NC(=O)[C@@H](C)NC(=O)[C@H](CO)NC(=O)[C@H](CCCCN)NC(=O)[C@H](Cc3ccc(-c4ccc(C(=O)O)cc4)cc3)NC(=O)CNC(=O)[C@@H](C)N(C)C(=O)[C@H](CC(=O)O)NC(=O)[C@H]([C@@H](C)c3cccc4ccccc34)NC(=O)[C@@H]3C[C@@H](N)CN3C(=O)CNC(=O)[C@H](Cc3ccc(C(=O)O)cc3)NC(=O)[C@H](Cc3c[nH]c4ccccc34)NC2=O)cc1` [Example 112] (cyclo([AEF](Ac)W[Phe(4-COOH)]G[Pro(4R-NH2)][1Nal(3S-Me)]D[dNMeA]G[Bip(4'-COOH)]KS[dA][hTyr])), the IC50 came to 0.0617 nM.
